In patent US9624208B2, “Benzoxazolinone compounds with selective activity in voltage-gated sodium channels” (Merck Sharp & Dohme Corp., priority 2012, dated 2017):
Like-named read-outs stand apart in the source and are kept apart here.

Experiments:
human Nav1.5 = molecular target: T1, human Nav1.5 (Homo sapiens, UniProt Q14524); assay: PatchXpress sodium current measurement, inactivated state block, Nav1.5; assay type: cell-based; conditions: determined by PatchXpress measurement, HEK 293 cells
T1 construct: expressed in transfected cells
Procedure: (§1) Cell Based Assays for Nav 1.7 and Nav 1.5 Activity
(§2) Compounds were tested on human Nav1.7 and Nav1.5 channels stably expressed in HEK 293 cells.
(§3) Sodium Current Measurements on the PatchXpress 7000:
(§4) To measure inactivated state block of sodium channels, test compounds were characterized in an automated PatchXpress® assay (Molecular Devices) using a double-pulse protocol on human Nav1.7 and Nav1.5 channels stably expressed in HEK 293 cells. Cells were held at a potential 20 mV negative to the potential at which ˜50% of the channels are inactivated. A 8000 ms pre-pulse 7 mV positive to the potential at which ˜50% of the channels are inactivated was given followed by a hyperpolarizing 2 ms pulse to −120 mV and a 20 ms test pulse to −20 mV. The protocol was applied to cells in the absence, presence of compound and after washout. The temperature of PatchXpress® instruments was maintained at 22° C. The following recording solutions were used. Internal solution (mM): 30 CsCl, 5 HEPES, 10 EGTA, 120 CsF, 5 NaF, 2 MgCl2, pH 7.3 with CsOH. External solution (mM): 120 NMDG, 40 NaCl, 1 KCl, 0.5 MgCl2, 5 HEPES, 2.7 CaCl2, pH 7.5 with NMDG-OH. Estimated IC50 values were calculated based on at least two compound concentrations tested. For all electrophysiology experiments, offline analysis was used to correct for current rundown and to determine percent inhibition as a function of drug concentration. IC50 values were determined by fitting to the Hill equation.

human Nav1.7 = molecular target: T2, human Nav1.7 (Homo sapiens, UniProt Q15858); assay: PatchXpress sodium current measurement, inactivated state block, Nav1.7; assay type: cell-based; conditions: channels stably expressed in HEK 293 cells, double-pulse protocol, 22° C.
T2 construct: expressed in transfected cells
Procedure: as §1, §2, §3, §4

[1] = read-out: potency for the Nav 1.7 sodium ion channel (1.7=)

T2 sequence (Q15858 whole entry): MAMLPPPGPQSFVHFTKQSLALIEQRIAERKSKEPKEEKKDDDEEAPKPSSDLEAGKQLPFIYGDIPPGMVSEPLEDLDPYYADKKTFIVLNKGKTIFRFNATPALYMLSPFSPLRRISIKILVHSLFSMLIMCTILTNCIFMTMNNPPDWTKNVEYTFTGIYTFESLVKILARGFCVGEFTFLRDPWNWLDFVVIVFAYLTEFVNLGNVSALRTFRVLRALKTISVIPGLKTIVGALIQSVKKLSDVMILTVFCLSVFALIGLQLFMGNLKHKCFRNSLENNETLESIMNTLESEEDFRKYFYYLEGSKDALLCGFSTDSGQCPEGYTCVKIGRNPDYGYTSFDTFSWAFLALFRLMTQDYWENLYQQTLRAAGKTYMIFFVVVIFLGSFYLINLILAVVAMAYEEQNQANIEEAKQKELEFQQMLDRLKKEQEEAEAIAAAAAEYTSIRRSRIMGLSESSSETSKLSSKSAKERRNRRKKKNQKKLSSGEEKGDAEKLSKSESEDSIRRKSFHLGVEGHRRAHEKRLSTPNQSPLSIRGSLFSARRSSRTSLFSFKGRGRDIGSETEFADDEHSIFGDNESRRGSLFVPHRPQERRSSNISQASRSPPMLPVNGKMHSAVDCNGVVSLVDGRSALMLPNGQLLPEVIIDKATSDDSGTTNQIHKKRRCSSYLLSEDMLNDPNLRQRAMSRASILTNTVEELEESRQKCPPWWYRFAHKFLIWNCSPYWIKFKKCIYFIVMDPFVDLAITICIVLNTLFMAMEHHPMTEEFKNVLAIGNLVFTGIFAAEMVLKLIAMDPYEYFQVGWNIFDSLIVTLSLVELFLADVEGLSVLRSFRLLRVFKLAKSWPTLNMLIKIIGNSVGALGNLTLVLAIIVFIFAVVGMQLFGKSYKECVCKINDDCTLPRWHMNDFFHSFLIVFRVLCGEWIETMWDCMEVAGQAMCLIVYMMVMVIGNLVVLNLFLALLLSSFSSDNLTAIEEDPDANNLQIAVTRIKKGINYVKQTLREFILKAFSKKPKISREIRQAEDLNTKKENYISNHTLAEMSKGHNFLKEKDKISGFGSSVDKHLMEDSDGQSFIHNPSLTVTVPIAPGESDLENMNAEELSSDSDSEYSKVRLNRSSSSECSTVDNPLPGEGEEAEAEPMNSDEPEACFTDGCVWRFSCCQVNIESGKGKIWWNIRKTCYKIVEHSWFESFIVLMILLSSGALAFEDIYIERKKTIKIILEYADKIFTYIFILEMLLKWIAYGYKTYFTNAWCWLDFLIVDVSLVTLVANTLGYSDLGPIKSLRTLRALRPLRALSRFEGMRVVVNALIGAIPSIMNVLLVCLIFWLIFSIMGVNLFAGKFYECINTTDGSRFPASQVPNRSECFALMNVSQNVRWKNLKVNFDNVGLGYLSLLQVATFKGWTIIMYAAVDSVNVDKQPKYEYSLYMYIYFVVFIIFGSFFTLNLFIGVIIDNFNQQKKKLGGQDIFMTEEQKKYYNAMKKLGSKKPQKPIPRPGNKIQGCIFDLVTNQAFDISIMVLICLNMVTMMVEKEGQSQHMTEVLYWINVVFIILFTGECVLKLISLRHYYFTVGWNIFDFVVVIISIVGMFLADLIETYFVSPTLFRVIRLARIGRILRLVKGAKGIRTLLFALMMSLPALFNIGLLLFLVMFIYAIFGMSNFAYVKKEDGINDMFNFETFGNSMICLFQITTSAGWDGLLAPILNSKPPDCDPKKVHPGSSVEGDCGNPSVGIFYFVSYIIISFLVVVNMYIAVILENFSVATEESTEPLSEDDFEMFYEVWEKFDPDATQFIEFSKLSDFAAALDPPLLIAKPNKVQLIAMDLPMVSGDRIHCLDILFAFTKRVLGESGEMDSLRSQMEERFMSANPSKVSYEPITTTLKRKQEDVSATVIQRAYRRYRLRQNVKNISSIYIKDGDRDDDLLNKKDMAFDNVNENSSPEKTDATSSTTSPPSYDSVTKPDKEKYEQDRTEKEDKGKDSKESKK
T1 sequence (Q14524 whole entry): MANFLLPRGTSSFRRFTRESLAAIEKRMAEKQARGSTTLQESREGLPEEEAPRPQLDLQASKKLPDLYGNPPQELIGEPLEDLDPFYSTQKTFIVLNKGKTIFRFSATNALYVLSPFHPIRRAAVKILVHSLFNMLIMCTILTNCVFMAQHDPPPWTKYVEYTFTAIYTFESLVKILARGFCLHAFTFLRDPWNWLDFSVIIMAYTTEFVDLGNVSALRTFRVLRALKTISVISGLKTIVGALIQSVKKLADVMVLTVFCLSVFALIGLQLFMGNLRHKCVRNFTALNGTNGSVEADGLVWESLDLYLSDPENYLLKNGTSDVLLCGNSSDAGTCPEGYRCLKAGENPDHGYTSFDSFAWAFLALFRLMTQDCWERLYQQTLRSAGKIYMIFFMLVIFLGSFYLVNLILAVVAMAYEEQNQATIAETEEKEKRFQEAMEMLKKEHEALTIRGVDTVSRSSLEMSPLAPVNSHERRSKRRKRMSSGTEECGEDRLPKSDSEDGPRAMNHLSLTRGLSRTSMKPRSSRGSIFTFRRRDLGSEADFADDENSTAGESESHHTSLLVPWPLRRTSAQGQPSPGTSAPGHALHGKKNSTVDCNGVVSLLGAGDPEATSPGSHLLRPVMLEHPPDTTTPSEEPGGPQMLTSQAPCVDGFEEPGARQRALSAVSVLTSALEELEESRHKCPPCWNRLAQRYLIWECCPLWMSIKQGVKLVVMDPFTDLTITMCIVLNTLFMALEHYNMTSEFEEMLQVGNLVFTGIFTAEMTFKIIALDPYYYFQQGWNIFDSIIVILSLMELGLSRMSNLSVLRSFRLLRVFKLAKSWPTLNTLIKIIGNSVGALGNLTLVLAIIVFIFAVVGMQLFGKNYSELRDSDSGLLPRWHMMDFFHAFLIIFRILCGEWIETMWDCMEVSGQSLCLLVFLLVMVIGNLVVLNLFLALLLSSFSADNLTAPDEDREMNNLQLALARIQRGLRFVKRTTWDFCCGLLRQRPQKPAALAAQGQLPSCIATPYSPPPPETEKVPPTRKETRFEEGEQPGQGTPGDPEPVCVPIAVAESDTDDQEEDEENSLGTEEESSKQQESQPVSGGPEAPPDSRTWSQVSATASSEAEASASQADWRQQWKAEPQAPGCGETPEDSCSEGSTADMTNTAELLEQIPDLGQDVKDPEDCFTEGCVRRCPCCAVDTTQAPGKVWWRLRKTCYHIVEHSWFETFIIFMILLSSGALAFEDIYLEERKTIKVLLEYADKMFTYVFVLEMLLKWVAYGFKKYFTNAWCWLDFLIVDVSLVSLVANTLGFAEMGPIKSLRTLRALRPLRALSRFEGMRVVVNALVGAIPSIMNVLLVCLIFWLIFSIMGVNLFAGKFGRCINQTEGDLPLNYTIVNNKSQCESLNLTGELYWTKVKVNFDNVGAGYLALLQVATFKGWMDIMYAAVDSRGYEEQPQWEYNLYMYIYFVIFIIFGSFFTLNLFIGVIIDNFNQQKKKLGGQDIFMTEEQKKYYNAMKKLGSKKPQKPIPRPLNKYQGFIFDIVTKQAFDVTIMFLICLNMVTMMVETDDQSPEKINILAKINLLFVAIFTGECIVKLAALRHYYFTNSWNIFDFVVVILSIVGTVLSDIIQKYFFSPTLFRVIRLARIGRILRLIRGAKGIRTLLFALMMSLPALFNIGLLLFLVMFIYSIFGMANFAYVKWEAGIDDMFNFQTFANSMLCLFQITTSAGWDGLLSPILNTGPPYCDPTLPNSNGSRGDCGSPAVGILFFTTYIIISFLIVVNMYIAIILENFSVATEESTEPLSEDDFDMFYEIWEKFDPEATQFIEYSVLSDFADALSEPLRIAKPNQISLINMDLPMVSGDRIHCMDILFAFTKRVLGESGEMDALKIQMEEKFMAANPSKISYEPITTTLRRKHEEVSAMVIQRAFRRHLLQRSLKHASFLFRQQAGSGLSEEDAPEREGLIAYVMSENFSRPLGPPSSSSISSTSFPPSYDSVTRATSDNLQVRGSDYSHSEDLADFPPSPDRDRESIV

Compound: O=c1oc2cc(S(=O)(=O)Nc3cccc(F)n3)c(F)cc2n1Cc1cccc2c1CNCC2F (single isomer, unassigned; enantiomer 2) [Ex5-11, (S or R)-5-fluoro-N-(6-fluoropyridin-2-yl)-3-[(4-fluoro-1,2,3,4-tetrahydroisoquinolin-8-yl)methyl]-2-oxo-2,3-dihydro-1,3-benzoxazole-6-sulfonamide (enantiomer 2)]
- ratio of Nav 1.5:Nav 1.7 potency (human Nav1.5): 54
- IC50 (human Nav1.7; [1]): 727 nM

Compound: C[C@H](c1cccc2c1CNCC2)n1c(=O)oc2cc(S(=O)(=O)Nc3cccc(F)n3)ccc21.Cl [Ex2-5, (R)—N-(6-fluoropyridin-2-yl)-2-oxo-3-(1-(1,2,3,4-tetrahydroisoquinolin-8-yl)ethyl)-2,3-dihydrobenzo[d]oxazole-6-sulfonamide hydrochloride]
- ratio of Nav 1.5:Nav 1.7 potency (human Nav1.5): 316
- IC50 (human Nav1.7; [1]): 152 nM

Compound: C[C@H](c1cccc2c1CNCC2)n1c(=O)oc2cc(S(=O)(=O)Nc3cccc(F)n3)c(F)cc21.Cl [Ex3-5, (R)-5-fluoro-N-(6-fluoropyridin-2-yl)-2-oxo-3-(1-(1,2,3,4-tetrahydroisoquinolin-8-yl)ethyl)-2,3-dihydrobenzo[d]oxazole-6-sulfonamide hydrochloride]
- ratio of Nav 1.5:Nav 1.7 potency (human Nav1.5): 158
- IC50 (human Nav1.7; [1]): 99 nM

Compound: Nc1ccc2c(c1)C(n1c(=O)oc3cc(S(=O)(=O)Nc4cccc(F)n4)c(F)cc31)CCC2 (centres unmarked) [Ex4-4, 3-(7-Amino-1,2,3,4-tetrahydronaphthalen-1-yl)-5-fluoro-N-(6-fluoropyridin-2-yl)-2-oxo-2,3-dihydro-1,3-benzoxazole-6-sulfonamide]
- ratio of Nav 1.5:Nav 1.7 potency (human Nav1.5): 166
- IC50 (human Nav1.7; [1]): 482 nM

Compound: O=c1oc2cc(S(=O)(=O)Nc3cccc(F)n3)c(F)cc2n1C1CCCc2ccc(F)cc21 (centres unmarked) [Ex4-5, 5-fluoro-N-(6-fluoropyridin-2-yl)-3-(7-fluoro-1,2,3,4-tetrahydronaphthalen-1-yl)-2-oxo-2,3-dlihydro-1,3-benzoxazole-6-sulfonamide]
- ratio of Nav 1.5:Nav 1.7 potency (human Nav1.5): 101
- IC50 (human Nav1.7; [1]): 650 nM

Compound: C[C@H](c1ccccc1C1=CCNCC1)n1c(=O)oc2cc(S(=O)(=O)Nc3cccc(F)n3)c(F)cc21 [Ex7-5, (R)-5-Fluoro-N-(6-fluoropyridin-2-yl)-2-oxo-3-(1-(2-(1,2,3,6-tetrahydropyridin-4-yl)phenyl)ethyl)-2,3-dihydrobenzo[d]oxazole-6-sulfonamide]
- ratio of Nav 1.5:Nav 1.7 potency (human Nav1.5): 1398
- IC50 (human Nav1.7; [1]): 3 nM

Compound: C[C@H](c1ccccc1C1=CCC(N)CC1)n1c(=O)oc2cc(S(=O)(=O)Nc3cccc(F)n3)c(F)cc21 (stereo partly drawn) [Ex7-6, 3-{(1R)-1-[2-(4-aminocyclohex-1-en-1-yl)phenyl]ethyl}-5-fluoro-N-(6-fluoropyridin-2-yl)-2-oxo-2,3-dihydro-1,3-benzoxazole-6-sulfonamide]
- ratio of Nav 1.5:Nav 1.7 potency (human Nav1.5): 123
- IC50 (human Nav1.7; [1]): 460 nM

Compound: C[C@H](c1ccccc1C1=CCNCCC1)n1c(=O)oc2cc(S(=O)(=O)Nc3cccc(F)n3)c(F)cc21 [Ex7-7, 5-fluoro-N-(6-fluoropyridin-2-yl)-2-oxo-3-{(1R)-1-[2-(2,5,6,7-tetrahydro-1H-azepin-4-yl)phenyl]ethyl}-2,3-dihydro-1,3-benzoxazole-6-sulfonamide]
- ratio of Nav 1.5:Nav 1.7 potency (human Nav1.5): 239
- IC50 (human Nav1.7; [1]): 41 nM

Compound: C[C@H](c1ccccc1C1=C[C@@H]2CC[C@H](C1)N2)n1c(=O)oc2cc(S(=O)(=O)Nc3cccc(F)n3)c(F)cc21 [Ex7-8, 3-[(1R)-1-{2-[(1S,5R)-8-azabicyclo[3.2.1]oct-2-en-3-yl]phenyl}ethyl]-5-fluoro-N-(6-fluoropyridin-2-yl)-2-oxo-2,3-dihydro-1,3-benzoxazole-6-sulfonamide]
- ratio of Nav 1.5:Nav 1.7 potency (human Nav1.5): 681
- IC50 (human Nav1.7; potency for the Nav 1.7 sodium ion channel (1.7=)): 81 nM

Compound: C[C@H](c1cccc(C2=CCNCC2)c1)n1c(=O)oc2cc(S(=O)(=O)Nc3cccc(F)n3)c(F)cc21 [Ex7-10, 5-fluoro-N-(6-fluoropyridin-2-yl)-2-oxo-3-{(1R)-1-[3-(1,2,3,6-tetrahydropyridin-4-yl)phenyl]ethyl}-2,3-dihydro-1,3-benzoxazole-6-sulfonamide]
- ratio of Nav 1.5:Nav 1.7 potency (human Nav1.5): 331
- IC50 (human Nav1.7; [1]): 127 nM

Compound: C[C@H](c1cccc(C2=CCCNC2)c1)n1c(=O)oc2cc(S(=O)(=O)Nc3cccc(F)n3)c(F)cc21 [Ex7-11, 5-fluoro-N-(6-fluoropyridin-2-yl)-2-oxo-3-{(1R)-1-[3-(1,2,5,6-tetrahydropyridin-3-yl)phenyl]ethyl}-2,3-dihydro-1,3-benzoxazole-6-sulfonamide]
- ratio of Nav 1.5:Nav 1.7 potency (human Nav1.5): 461
- IC50 (human Nav1.7; [1]): 65 nM

Compound: C[C@H](c1ccccc1C#CCN)n1c(=O)oc2cc(S(=O)(=O)Nc3cccc(F)n3)c(F)cc21 [Ex8-1, (R)-3-(1-(2-(3-Aminoprop-1-yn-1-yl)phenyl)ethyl)-5-fluoro-N-(6-fluoropyridin-2-yl)-2-oxo-2,3-dihydrobenzo[d]oxazole-6-sulfonamide]
- ratio of Nav 1.5:Nav 1.7 potency (human Nav1.5): 546
- IC50 (human Nav1.7; [1]): 50 nM

Compound: C[C@H](c1ccccc1C#CCN1CCCC1)n1c(=O)oc2cc(S(=O)(=O)Nc3cccc(F)n3)c(F)cc21 [Ex8-2, 5-fluoro-N-(6-fluoropyridin-2-yl)-2-oxo-3-{(1R)-1-[2-(3-pyrrolidin-1-ylprop-1-yn-1-yl)phenyl]ethyl}-2,3-dihydro-1,3-benzoxazole-6-sulfonamide]
- ratio of Nav 1.5:Nav 1.7 potency (human Nav1.5): 23
- IC50 (human Nav1.7; [1]): 434 nM

Compound: C[C@H](c1ccccc1C#C[C@H]1CCCC[C@H]1N)n1c(=O)oc2cc(S(=O)(=O)Nc3cccc(F)n3)c(F)cc21 [Ex8-3, 3-[(1R)-1-(2-{[(1R,2R)-2-aminocyclohexyl]ethynyl}phenyl)ethyl]-5-fluoro-N-(6-fluoropyridin-2-yl)-2-oxo-2,3-dihydro-1,3-benzoxazole-6-sulfonamide]
- ratio of Nav 1.5:Nav 1.7 potency (human Nav1.5): 2000
- IC50 (human Nav1.7; [1]): 14 nM

Compound: C[C@H](c1ccccc1C#CC(N)CO)n1c(=O)oc2cc(S(=O)(=O)Nc3cccc(F)n3)c(F)cc21 (stereo partly drawn) [Ex8-4, 3-{(1R)-1-[2-(3-amino-4-hydroxybut-1-yn-1-yl)phenyl]ethyl}-5-fluoro-N-(6-fluoropyridin-2-yl)-2-oxo-2,3-dihydro-1,3-benzoxazole-6-sulfonamide]
- ratio of Nav 1.5:Nav 1.7 potency (human Nav1.5): 822
- IC50 (human Nav1.7; [1]): 9 nM

Compound: C[C@H](c1ccccc1C#CC1(N)CCCCC1)n1c(=O)oc2cc(S(=O)(=O)Nc3cccc(F)n3)c(F)cc21 [Ex8-6, 3-[(1R)-1-{2-[(1-aminocyclohexyl)ethynyl]phenyl}ethyl]-5-fluoro-N-(6-fluoropyridin-2-yl)-2-oxo-2,3-dihydro-1,3-benzoxazole-6-sulfonamide]
- ratio of Nav 1.5:Nav 1.7 potency (human Nav1.5): 95
- IC50 (human Nav1.7; [1]): 49 nM

Compound: C[C@H](c1ccccc1C#CCC(C)(C)N)n1c(=O)oc2cc(S(=O)(=O)Nc3cccc(F)n3)c(F)cc21 [Ex8-7, 3-{(1R)-1-[2-(4-amino-4-methylpent-1-yn-1-yl)phenyl]ethyl}-5-fluoro-N-(6-fluoropyridin-2-yl)-2-oxo-2,3-dihydro-1,3-benzoxazole-6-sulfonamide]
- ratio of Nav 1.5:Nav 1.7 potency (human Nav1.5): > 131
- IC50 (human Nav1.7; [1]): 108 nM

Compound: C[C@H](c1ccccc1C#CCN1CCC(O)C1)n1c(=O)oc2cc(S(=O)(=O)Nc3cccc(F)n3)c(F)cc21 (stereo partly drawn) [Ex8-8, 5-fluoro-N-(6-fluoropyridin-2-yl)-3-[(1R)-1-{2-[3-(3-hydroxypyrrolidin-1-yl)prop-1-yn-1-yl]phenyl}ethyl]-2-oxo-2,3-dihydro-1,3-benzoxazole-6-sulfonamide]
- ratio of Nav 1.5:Nav 1.7 potency (human Nav1.5): 75
- IC50 (human Nav1.7; [1]): 299 nM

Compound: C[C@H](c1ccccc1C#CCN(C)C)n1c(=O)oc2cc(S(=O)(=O)Nc3cccc(F)n3)c(F)cc21 [Ex8-9, 3-[(1R)-1-{2-[3-(dimethylamino)prop-1-yn-1-yl]phenyl}ethyl]-5-fluoro-N-(6-fluoropyridin-2-yl)-2-oxo-2,3-dihydro-1,3-benzoxazole-6-sulfonamide]
- ratio of Nav 1.5:Nav 1.7 potency (human Nav1.5): 99
- IC50 (human Nav1.7; [1]): 273 nM

Compound: C[C@H](c1ccccc1C#CCN1CCC1)n1c(=O)oc2cc(S(=O)(=O)Nc3cccc(F)n3)c(F)cc21 [Ex8-10, 3-{(1R)-1-[2-(3-azetidin-1-ylprop-1-yn-1-yl)phenyl]ethyl}-5-fluoro-N-(6-fluoropyridin-2-yl)-2-oxo-2,3-dihydro-1,3-benzoxazole-6-sulfonamide]
- ratio of Nav 1.5:Nav 1.7 potency (human Nav1.5): 127
- IC50 (human Nav1.7; [1]): 236 nM

Compound: C[C@H](c1ccccc1CN)n1c(=O)oc2cc(S(=O)(=O)Nc3cccc(F)n3)c(F)cc21 [Ex9-1, (R)-3-(1-(2-(aminomethyl)phenyl)ethyl)-5-fluoro-N-(6-fluoropyridin-2-yl)-2-oxo-2,3-dihydrobenzo[d]oxazole-6-sulfonamide]
- ratio of Nav 1.5:Nav 1.7 potency (human Nav1.5): 1525
- IC50 (human Nav1.7; [1]): 24 nM

Compound: C[C@H](c1ccccc1CN(C)C)n1c(=O)oc2cc(S(=O)(=O)Nc3cccc(F)n3)c(F)cc21 [Ex9-2, 3-[(1R)-1-{2-[(dimethylamino)methyl]phenyl}ethyl]-5-fluoro-N-(6-fluoropyridin-2-yl)-2-oxo-2,3-dihydro-1,3-benzoxazole-6-sulfonamide]
- ratio of Nav 1.5:Nav 1.7 potency (human Nav1.5): 84
- IC50 (human Nav1.7; [1]): 124 nM
